How the values were obtained:
Experiment in all cases: cells
MMAC-SF = assay type: functional, cell-based; settings: Homo sapiens;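 note: growth inhibition of human MMAC-SF cells, read out with a cell viability assay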
Description: SANGER: Inhibition of human MMAC-SF cell growth in a cell viability assay.

ES1 = assay type: functional, cell-based, Homo sapiens; settings: Homo sapiens, ES1;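 note: growth inhibition of ES1 cells, read out with a cell viability assay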
Description: SANGER: Inhibition of human ES1 cell growth in a cell viability assay.

RKO = assay type: functional, cell-based, Homo sapiens; settings: Homo sapiens, RKO;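 note: growth inhibition of human RKO cells, read out with a cell viability assay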
Description: SANGER: Inhibition of human RKO cell growth in a cell viability assay.

A101D = assay type: functional, cell-based, Homo sapiens; settings: Homo sapiens, A101D;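 note: growth inhibition of the cell line, measured with a viability assay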
Description: SANGER: Inhibition of human A101D cell growth in a cell viability assay.

Ramos-2G6-4C10 = assay type: functional, cell-based, Homo sapiens; settings: Homo sapiens, Ramos-2G6-4C10;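 note: growth inhibition of the cell line, measured by a cell viability read-out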
Description: SANGER: Inhibition of human Ramos-2G6-4C10 cell growth in a cell viability assay.

D283 Med = assay type: functional, cell-based, Homo sapiens; settings: Homo sapiens, D283 Med
Description: SANGER: Inhibition of human D-283MED cell growth in a cell viability assay.

NCI-H1395 = assay type: functional, cell-based, Homo sapiens; settings: Homo sapiens, NCI-H1395;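 note: cell viability assay read-out quantifying reduced proliferation of human NCI-H1395 cells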
Description: SANGER: Inhibition of human NCI-H1395 cell growth in a cell viability assay.

LS-123 = assay type: functional, cell-based, Homo sapiens; settings: Homo sapiens, LS-123
Description: SANGER: Inhibition of human LS-123 cell growth in a cell viability assay.

KALS-1 = assay type: functional, cell-based, Homo sapiens; settings: Homo sapiens, KALS-1; read-out: IC50;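 note: growth inhibition of KALS-1 cells, determined with a cell viability assay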
Description: SANGER: Inhibition of human KALS-1 cell growth in a cell viability assay.

TE-11 = assay type: functional, cell-based; settings: Homo sapiens;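 note: growth inhibition of human TE-11 cells, read out by a cell viability assay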
Description: SANGER: Inhibition of human TE-11 cell growth in a cell viability assay.

ACN = assay type: functional, cell-based, Homo sapiens; settings: Homo sapiens, ACN;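 note: growth inhibition of the human ACN cell line, read out via cell viability testing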
Description: SANGER: Inhibition of human ACN cell growth in a cell viability assay.

NCI-H1648 = assay type: functional, cell-based, Homo sapiens; settings: Homo sapiens, NCI-H1648;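 note: cell viability assay measuring inhibition of NCI-H1648 cell growth, from the Sanger screening data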
Description: SANGER: Inhibition of human NCI-H1648 cell growth in a cell viability assay.

MZ1-PC = assay type: functional, cell-based, Homo sapiens; settings: Homo sapiens, MZ1-PC;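 note: cell viability assay measuring growth inhibition of human MZ1-PC cells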
Description: SANGER: Inhibition of human MZ1-PC cell growth in a cell viability assay.

SW 954 = assay type: functional, cell-based, Homo sapiens; settings: Homo sapiens, SW 954;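 note: growth inhibition of SW954 human cancer cells, read out as cell viability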
Description: SANGER: Inhibition of human SW954 cell growth in a cell viability assay.

COLO-824 = assay type: functional, cell-based, Homo sapiens; settings: Homo sapiens, COLO-824
Description: SANGER: Inhibition of human COLO-824 cell growth in a cell viability assay.

TK-10 = assay type: functional, cell-based, Homo sapiens; settings: Homo sapiens, TK-10;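 note: growth inhibition of TK-10 cells, read out in a cell viability assay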
Description: SANGER: Inhibition of human TK10 cell growth in a cell viability assay.

ATN-1 = assay type: functional, cell-based, Homo sapiens; settings: Homo sapiens, ATN-1;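 note: growth inhibition of human ATN-1 cells, read out with a cell viability assay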
Description: SANGER: Inhibition of human ATN-1 cell growth in a cell viability assay.

ETK-1 = assay type: functional, cell-based, Homo sapiens; settings: Homo sapiens, ETK-1;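 note: growth inhibition of human ETK-1 cells, read out with a cell viability assay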
Description: SANGER: Inhibition of human ETK-1 cell growth in a cell viability assay.

Becker = assay type: functional, cell-based, Homo sapiens; settings: Homo sapiens, Becker;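 note: growth inhibition of Becker cells, read out with a cell viability assay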
Description: SANGER: Inhibition of human Becker cell growth in a cell viability assay.

HDLM-2 = assay type: functional, cell-based, Homo sapiens; settings: Homo sapiens, HDLM-2;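 note: cell viability assay measuring suppression of HDLM-2 proliferation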
Description: SANGER: Inhibition of human HDLM-2 cell growth in a cell viability assay.

BE-13 = assay type: functional, cell-based, Homo sapiens; settings: Homo sapiens, BE-13;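 note: growth inhibition of human BE-13 cells, measured with a cell viability assay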
Description: SANGER: Inhibition of human BE-13 cell growth in a cell viability assay.

TE-12 = assay type: functional, cell-based, Homo sapiens; settings: Homo sapiens, TE-12;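 note: growth inhibition of TE-12 cells, read out by a cell viability assay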
Description: SANGER: Inhibition of human TE-12 cell growth in a cell viability assay.

HT = assay type: functional, cell-based, Homo sapiens; settings: Homo sapiens, HT
Description: SANGER: Inhibition of human HT cell growth in a cell viability assay.

GB-1 = assay type: functional, cell-based, Homo sapiens; settings: Homo sapiens, GB-1;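 note: growth of GB-1 cells judged by a viability assay, IC50 marks the concentration inhibiting growth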
Description: SANGER: Inhibition of human GB-1 cell growth in a cell viability assay.

SK-MEL-1 = assay type: functional, cell-based, Homo sapiens; settings: Homo sapiens, SK-MEL-1;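 note: growth inhibition of human SK-MEL-1 cells, read out by a cell viability assay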
Description: SANGER: Inhibition of human SK-MEL-1 cell growth in a cell viability assay.

CAS-1 = assay type: functional, cell-based, Homo sapiens; settings: Homo sapiens, CAS-1;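 note: growth inhibition of CAS-1 cells, measured with a cell viability assay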
Description: SANGER: Inhibition of human CAS-1 cell growth in a cell viability assay.

A388 = assay type: functional, cell-based; settings: Homo sapiens;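 note: growth inhibition of human A388 cells, read out with a cell viability assay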
Description: SANGER: Inhibition of human A388 cell growth in a cell viability assay.

EW-13 = assay type: functional, cell-based, Homo sapiens; settings: Homo sapiens, EW-13; read-out: IC50;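 note: growth inhibition of EW-13 cells, read out with a cell viability assay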
Description: SANGER: Inhibition of human EW-13 cell growth in a cell viability assay.

COLO-684 = assay type: functional, cell-based, Homo sapiens; settings: Homo sapiens, COLO-684
Description: SANGER: Inhibition of human COLO-684 cell growth in a cell viability assay.

LS-513 = assay type: functional, cell-based, Homo sapiens; settings: Homo sapiens, LS-513
Description: SANGER: Inhibition of human LS-513 cell growth in a cell viability assay.

SW684 = assay type: functional, cell-based, Homo sapiens; settings: Homo sapiens, SW684; read-out: IC50;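 note: growth inhibition of human SW684 cells, measured by a cell viability assay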
Description: SANGER: Inhibition of human SW684 cell growth in a cell viability assay.

BB30-HNC = assay type: functional, cell-based, Homo sapiens; settings: Homo sapiens, BB30-HNC;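 note: growth inhibition of the cultured cell line, read out by a cell viability assay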
Description: SANGER: Inhibition of human BB30-HNC cell growth in a cell viability assay.

MC116 = assay type: functional, cell-based, Homo sapiens; settings: Homo sapiens, MC116;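 note: growth inhibition of MC116 cells, read out with a cell viability assay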
Description: SANGER: Inhibition of human MC116 cell growth in a cell viability assay.

SH-4 = assay type: functional, cell-based; settings: Homo sapiens;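 note: growth inhibition of SH-4 cells, read out with a cell viability assay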
Description: SANGER: Inhibition of human SH-4 cell growth in a cell viability assay.

A704 = assay type: functional, cell-based; settings: Homo sapiens;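 note: growth inhibition of human A704 cells, read out with a cell viability assay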
Description: SANGER: Inhibition of human A704 cell growth in a cell viability assay.

SF-126 = assay type: functional, cell-based, Homo sapiens; settings: Homo sapiens, SF-126;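 note: growth inhibition of human SF126 cells, read out with a cell viability assay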
Description: SANGER: Inhibition of human SF126 cell growth in a cell viability assay.

NCI-H1155 = assay type: functional, cell-based, Homo sapiens; settings: Homo sapiens, NCI-H1155;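 note: cell growth inhibition measured by a viability assay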
Description: SANGER: Inhibition of human NCI-H1155 cell growth in a cell viability assay.

HCE-T = assay type: functional, cell-based, Homo sapiens; settings: Homo sapiens, HCE-T;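 note: cell viability assay read-out, reporting inhibition of HCE-T cell growth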
Description: SANGER: Inhibition of human HCE-T cell growth in a cell viability assay.

SF-268 = assay type: functional, cell-based, Homo sapiens; settings: Homo sapiens, SF-268;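 note: growth inhibition of SF-268 cells determined with a cell viability assay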
Description: SANGER: Inhibition of human SF268 cell growth in a cell viability assay.

JVM-3 = assay type: functional, cell-based, Homo sapiens; settings: Homo sapiens, JVM-3;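 note: growth inhibition of human JVM-3 cells, read out with a cell viability assay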
Description: SANGER: Inhibition of human JVM-3 cell growth in a cell viability assay.

A498 = assay type: functional, cell-based, Homo sapiens; settings: Homo sapiens, A498;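 note: growth inhibition of human A498 cells, read out with a cell viability assay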
Description: SANGER: Inhibition of human A498 cell growth in a cell viability assay.

NCI-H82 = assay type: functional, cell-based, Homo sapiens; settings: Homo sapiens, NCI-H82;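 note: growth inhibition of NCI-H82 cells, measured with a cell viability readout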
Description: SANGER: Inhibition of human NCI-H82 cell growth in a cell viability assay.

C2BBe1 = assay type: functional, cell-based, Homo sapiens; settings: Homo sapiens, C2BBe1;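 note: growth inhibition of C2BBe1 cells, read out through a viability assay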
Description: SANGER: Inhibition of human C2BBe1 cell growth in a cell viability assay.

ES8 = assay type: functional, cell-based, Homo sapiens; settings: Homo sapiens, ES8;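 note: growth inhibition of human ES8 cells, read out with a cell viability assay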
Description: SANGER: Inhibition of human ES8 cell growth in a cell viability assay.

DU-4475 = assay type: functional, cell-based, Homo sapiens; settings: Homo sapiens, DU-4475
Description: SANGER: Inhibition of human DU-4475 cell growth in a cell viability assay.

ML-2 = assay type: functional, cell-based, Homo sapiens; settings: Homo sapiens, ML-2;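 note: growth inhibition of ML-2 cells, measured with a cell viability readout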
Description: SANGER: Inhibition of human ML-2 cell growth in a cell viability assay.

EW-3 = assay type: functional, cell-based, Homo sapiens; settings: Homo sapiens, EW-3;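 note: cell viability assay read-out, IC50 reflects inhibition of growth of the EW-3 cells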
Description: SANGER: Inhibition of human EW-3 cell growth in a cell viability assay.

SBC-1 = assay type: functional, cell-based, Homo sapiens; settings: Homo sapiens, SBC-1;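 note: cell viability assay measuring growth inhibition of the SBC-1 cell line, IC50 being the concentration that halves growth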
Description: SANGER: Inhibition of human SBC-1 cell growth in a cell viability assay.

EOL1 = assay type: functional, cell-based, Homo sapiens; settings: Homo sapiens, EOL1;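 note: growth inhibition of EoL-1 cells, read out by a cell viability assay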
Description: SANGER: Inhibition of human EoL-1-cell cell growth in a cell viability assay.

KU812 cell line = assay type: functional, cell-based, Homo sapiens; settings: Homo sapiens, KU812;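 note: growth inhibition of KU812 cells, read out with a cell viability assay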
Description: SANGER: Inhibition of human KU812 cell growth in a cell viability assay.

O=C(NCCCNc1nc(Nc2cccc(NC(=O)N3CCCC3)c2)ncc1I)c1cccs1 [BX-795]
IC50 (MMAC-SF): > 5 µM | IC50 (ES1): 1.75 µM | IC50 (RKO): > 5 µM | IC50 (A101D): 3.64 µM | IC50 (Ramos-2G6-4C10): 2.24 µM | IC50 (D283 Med): 1.04 µM | IC50 (NCI-H1395): > 5 µM | IC50 (LS-123): > 5 µM | IC50 (KALS-1): 3.31 µM | IC50 (TE-11): 1.65 µM | IC50 (ACN): > 5 µM | IC50 (NCI-H1648): > 5 µM | IC50 (MZ1-PC): > 5 µM | IC50 (SW 954): 3.44 µM | IC50 (COLO-824): > 5 µM | IC50 (TK-10): > 5 µM | IC50 (ATN-1): 1.37 µM | IC50 (ETK-1): 4.52 µM | IC50 (Becker): 3.01 µM | IC50 (HDLM-2): > 5 µM | IC50 (BE-13): 0.705 µM | IC50 (TE-12): > 5 µM | IC50 (HT): > 5 µM | IC50 (GB-1): 4.64 µM | IC50 (SK-MEL-1): > 5 µM | IC50 (CAS-1): 3.02 µM | IC50 (A388): > 5 µM | IC50 (EW-13): > 5 µM | IC50 (COLO-684): > 5 µM | IC50 (LS-513): > 5 µM | IC50 (SW684): > 5 µM | IC50 (BB30-HNC): > 5 µM | IC50 (MC116): > 5 µM | IC50 (SH-4): > 5 µM | IC50 (A704): > 5 µM | IC50 (SF-126): 2.44 µM | IC50 (NCI-H1155): 2.69 µM | IC50 (HCE-T): > 5 µM | IC50 (SF-268): 4.02 µM | IC50 (JVM-3): 1.86 µM | IC50 (A498): 4.56 µM | IC50 (NCI-H82): > 5 µM | IC50 (C2BBe1): > 5 µM | IC50 (ES8): 0.843 µM | IC50 (DU-4475): 1.29 µM

CN(C)CCOc1ccc(-c2nc(-c3ccncc3)c(-c3ccc4c(c3)CC/C4=N\O)[nH]2)cc1 [SB590885]
IC50 (ES1): > 5 µM | IC50 (RKO): > 5 µM | IC50 (A101D): 0.5 µM | IC50 (ML-2): > 5 µM | IC50 (Ramos-2G6-4C10): > 5 µM | IC50 (D283 Med): > 5 µM | IC50 (NCI-H1395): > 5 µM | IC50 (LS-123): > 5 µM | IC50 (TE-11): > 5 µM | IC50 (ACN): 1.15 µM | IC50 (MZ1-PC): > 5 µM | IC50 (SW 954): > 5 µM | IC50 (COLO-824): > 5 µM | IC50 (TK-10): > 5 µM | IC50 (ATN-1): > 5 µM | IC50 (EW-3): 3.56 µM | IC50 (ETK-1): > 5 µM | IC50 (Becker): > 5 µM | IC50 (HDLM-2): > 5 µM | IC50 (SBC-1): > 5 µM | IC50 (BE-13): > 5 µM | IC50 (TE-12): > 5 µM | IC50 (HT): > 5 µM | IC50 (GB-1): > 5 µM | IC50 (SK-MEL-1): > 5 µM | IC50 (CAS-1): > 5 µM | IC50 (A388): > 5 µM | IC50 (EW-13): > 5 µM | IC50 (COLO-684): > 5 µM | IC50 (LS-513): > 5 µM | IC50 (SW684): > 5 µM | IC50 (BB30-HNC): > 5 µM | IC50 (EOL1): 0.18 µM | IC50 (MC116): > 5 µM | IC50 (SH-4): 0.812 µM | IC50 (A704): > 5 µM | IC50 (SF-126): > 5 µM | IC50 (NCI-H1155): > 5 µM | IC50 (HCE-T): > 5 µM | IC50 (SF-268): > 5 µM | IC50 (JVM-3): > 5 µM | IC50 (A498): > 5 µM | IC50 (NCI-H82): > 5 µM | IC50 (C2BBe1): 1.96 µM | IC50 (KU812 cell line): > 5 µM | IC50 (ES8): > 5 µM | IC50 (DU-4475): 0.0235 µM

NC1(c2ccc(-c3nc4ccn5c(=O)[nH]nc5c4cc3-c3ccccc3)cc2)CCC1 [MK-2206]
IC50 (ES1): 1.24 µM | IC50 (RKO): 1.87 µM | IC50 (A101D): > 4 µM | IC50 (ML-2): > 4 µM | IC50 (Ramos-2G6-4C10): 1.34 µM | IC50 (D283 Med): > 4 µM | IC50 (NCI-H1395): 2.18 µM | IC50 (LS-123): > 4 µM | IC50 (TE-11): > 4 µM | IC50 (ACN): > 4 µM | IC50 (MZ1-PC): > 4 µM | IC50 (SW 954): > 4 µM | IC50 (COLO-824): > 4 µM | IC50 (TK-10): > 4 µM | IC50 (ATN-1): > 4 µM | IC50 (EW-3): 3.2 µM | IC50 (ETK-1): > 4 µM | IC50 (Becker): > 4 µM | IC50 (HDLM-2): > 4 µM | IC50 (SBC-1): 0.44 µM | IC50 (BE-13): > 4 µM | IC50 (TE-12): > 4 µM | IC50 (HT): 0.632 µM | IC50 (GB-1): > 4 µM | IC50 (SK-MEL-1): > 4 µM | IC50 (CAS-1): > 4 µM | IC50 (A388): > 4 µM | IC50 (EW-13): > 4 µM | IC50 (COLO-684): 1.24 µM | IC50 (LS-513): 2.33 µM | IC50 (SW684): > 4 µM | IC50 (BB30-HNC): > 4 µM | IC50 (EOL1): 3.07 µM | IC50 (MC116): > 4 µM | IC50 (SH-4): > 4 µM | IC50 (A704): > 4 µM | IC50 (SF-126): > 4 µM | IC50 (NCI-H1155): > 4 µM | IC50 (HCE-T): > 4 µM | IC50 (SF-268): > 4 µM | IC50 (JVM-3): > 4 µM | IC50 (A498): > 4 µM | IC50 (NCI-H82): > 4 µM | IC50 (C2BBe1): > 4 µM | IC50 (KU812 cell line): > 4 µM | IC50 (ES8): 2.49 µM | IC50 (DU-4475): > 4 µM
